Where a name gives a salt, the structure may show the parent alone. ± gives the standard deviation of the averaged measurements.
System: MES-SA
Test: relative viability vs DMSO control (72 h) (fraction); higher = more viable cells
How it was run: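 Sarcoma cell lines went into 384-well plates at densities chosen to reach 80–90% confluence. After 24 h, each well received 2.5 µl of serially diluted compound, with source plates running from 10 mM to 0.0002 mM, and the plates were kept 72 h at 37 °C, 5% CO2, alongside 0.1% DMSO vehicle and a 5 µM positive control. Relative viability was derived from ATPLite readings as percent growth and averaged over up to triplicate wells. The data were then rescaled so that 1 stands for full and 0 for none.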

| SMILES | relative viability (0.00017 µM) | relative viability (0.00051 µM) | relative viability (0.00152 µM) | relative viability (0.00457 µM) | relative viability (0.01372 µM) | relative viability (0.04115 µM) | relative viability (0.1235 µM) | relative viability (0.3704 µM) | relative viability (1.111 µM) | relative viability (3.333 µM) | relative viability (10 µM) |
| --- | --- | --- | --- | --- | --- | --- | --- | --- | --- | --- | --- |
| CC[C@H](Nc1ncnc2[nH]cnc12)c1nc2cccc(F)c2c(=O)n1-c1ccccc1 [Idelalisib] | 1.01 ± 0.021 | 1 ± 0.034 | 0.993 ± 0.03 | 0.964 ± 0.015 | 0.971 ± 0.038 | 0.972 ± 0.036 | 0.986 ± 0.022 | 0.937 ± 0.016 | 0.889 ± 0.031 | 0.867 ± 0.029 | 0.711 ± 0.023 |
| COc1cccc2c1C(=O)c1c(O)c3c(c(O)c1C2=O)C[C@@](O)(C(=O)CO)C[C@@H]3O[C@H]1C[C@H](N)[C@H](O)[C@H](C)O1 [Doxorubicin Hydrochloride] | 0.975 ± 0.028 | 0.937 ± 0.042 | 0.934 ± 0.024 | 0.89 ± 0.024 | 0.66 ± 0.036 | 0.39 ± 0.0073 | 0.313 ± 0.01 | 0.201 ± 0.0045 | 0.0143 ± 0.0029 | 0.0402 ± 0.002 | 0.03487 ± 0.00029 |
| Cc1ccc(NC(=O)c2ccc(CN3CCN(C)CC3)cc2)cc1Nc1nc(-c2cccnc2)cs1 [Masitinib] | 0.978 ± 0.013 | 0.969 ± 0.014 | 0.955 ± 0.021 | 0.96 ± 0.028 | 0.952 ± 0.011 | 0.956 ± 0.015 | 0.912 ± 0.025 | 0.905 ± 0.026 | 0.735 ± 0.029 | 0.445 ± 0.017 | 0.11 ± 0.011 |
| Cn1cnc2c(F)c(Nc3ccc(Br)cc3F)c(C(=O)NOCCO)cc21 [Binimetinib] | 0.927 ± 0.027 | 0.9232 ± 0.0083 | 0.927 ± 0.017 | 0.894 ± 0.042 | 0.892 ± 0.024 | 0.84 ± 0.025 | 0.793 ± 0.02 | 0.7569 ± 0.0022 | 0.782 ± 0.025 | 0.741 ± 0.037 | 0.735 ± 0.059 |
| CC(=O)Nc1cccc(-n2c(=O)n(C3CC3)c(=O)c3c(Nc4ccc(I)cc4F)n(C)c(=O)c(C)c32)c1 [Trametinib] | 0.968 ± 0.022 | 0.965 ± 0.012 | 0.929 ± 0.017 | 0.873 ± 0.029 | 0.831 ± 0.015 | 0.78 ± 0.011 | 0.76 ± 0.015 | 0.736 ± 0.034 | 0.683 ± 0.032 | 0.701 ± 0.017 | 0.6906 ± 0.006 |
| Cc1cc(Nc2ncnc3ccc(NC4=NC(C)(C)CO4)cc23)ccc1Oc1ccn2ncnc2c1 [Tucatinib] | 0.988 ± 0.052 | 0.9678 ± 0.005 | 0.961 ± 0.03 | 0.95 ± 0.022 | 0.948 ± 0.031 | 0.939 ± 0.035 | 0.916 ± 0.013 | 0.89 ± 0.049 | 0.857 ± 0.0086 | 0.796 ± 0.02 | 0.515 ± 0.042 |
| CCN1CCN(Cc2ccc(Nc3ncc(F)c(-c4cc(F)c5nc(C)n(C(C)C)c5c4)n3)nc2)CC1 [Abemaciclib] | 0.883 ± 0.026 | 0.901 ± 0.035 | 0.878 ± 0.02 | 0.873 ± 0.031 | 0.876 ± 0.05 | 0.84 ± 0.046 | 0.736 ± 0.037 | 0.61 ± 0.031 | 0.435 ± 0.012 | 0.361 ± 0.0072 | 0.348 ± 0.023 |
| Cc1nc(-c2cn3c(n2)-c2ccc(-c4cnn(C(C)(C)C(N)=O)c4)cc2OCC3)n(C(C)C)n1 [Taselisib] | 0.901 ± 0.028 | 0.9023 ± 0.004 | 0.887 ± 0.033 | 0.858 ± 0.021 | 0.797 ± 0.035 | 0.692 ± 0.01 | 0.504 ± 0.015 | 0.386 ± 0.014 | 0.299 ± 0.0098 | 0.214 ± 0.0027 | 0.146 ± 0.0072 |
| C[C@@H]1COCCN1c1cc(-c2ccnn2C)c2ccnc(-c3ccn[nH]3)c2n1 | 0.952 ± 0.028 | 0.934 ± 0.025 | 0.9269 ± 0.0056 | 0.924 ± 0.028 | 0.878 ± 0.013 | 0.752 ± 0.019 | 0.489 ± 0.012 | 0.31 ± 0.022 | 0.175 ± 0.0043 | 0.122 ± 0.0046 | 0.113 ± 0.003 |
| CO[C@H]1C[C@@H]2CC[C@@H](C)[C@@](O)(O2)C(=O)C(=O)N2CCCC[C@H]2C(=O)O[C@H]([C@H](C)C[C@@H]2CC[C@@H](OP(C)(C)=O)[C@H](OC)C2)CC(=O)[C@H](C)/C=C(\C)[C@@H](O)[C@@H](OC)C(=O)[C@H](C)C[C@H](C)/C=C/C=C/C=C/1C [Ridaforolimus] | 0.888 ± 0.04 | 0.827 ± 0.055 | 0.599 ± 0.0079 | 0.489 ± 0.015 | 0.423 ± 0.021 | 0.403 ± 0.024 | 0.4 ± 0.0088 | 0.368 ± 0.027 | 0.376 ± 0.0059 | 0.367 ± 0.023 | 0.374 ± 0.024 |
| CCc1cc2c(cc1N1CCC(N3CCOCC3)CC1)C(C)(C)c1[nH]c3cc(C#N)ccc3c1C2=O [Alectinib] | 0.896 ± 0.018 | 0.91 ± 0.026 | 0.895 ± 0.045 | 0.893 ± 0.036 | 0.889 ± 0.068 | 0.944 ± 0.035 | 0.953 ± 0.035 | 0.9459 ± 0.0094 | 0.942 ± 0.018 | 0.968 ± 0.049 | 0.959 ± 0.035 |
| COCc1c(-c2cc3cc(C)cc(OC)c3s2)c2c(N)ncnn2c1CN1CCNC(=O)C1 [Rogaratinib] | 0.974 ± 0.012 | 0.9554 ± 0.0066 | 0.943 ± 0.014 | 0.929 ± 0.014 | 0.939 ± 0.025 | 0.949 ± 0.046 | 0.849 ± 0.018 | 0.732 ± 0.02 | 0.664 ± 0.035 | 0.565 ± 0.012 | 0.389 ± 0.019 |
| C[C@@H]1CCN(C(=O)CC#N)C[C@@H]1N(C)c1ncnc2[nH]ccc12 [Tofacitinib] | 0.985 ± 0.035 | 0.955 ± 0.064 | 0.96 ± 0.043 | 0.963 ± 0.05 | 0.966 ± 0.033 | 0.976 ± 0.025 | 0.974 ± 0.031 | 0.953 ± 0.028 | 0.952 ± 0.056 | 0.927 ± 0.042 | 0.873 ± 0.049 |
| O=C(Cc1ccc(-c2ccc(OCCN3CCOCC3)cc2)cn1)NCc1ccccc1 [KX2-391] | 0.988 ± 0.041 | 0.976 ± 0.018 | 0.946 ± 0.018 | 0.949 ± 0.026 | 0.9439 ± 0.0022 | 0.448 ± 0.042 | 0.2711 ± 0.0024 | 0.179 ± 0.0046 | 0.143 ± 0.0031 | 0.133 ± 0.004 | 0.13 ± 0.0027 |
| C[C@@H](c1ccc2nccn2c1)n1nnc2ncc(-c3cnn(C)c3)nc21 [Volitinib] | 0.91 ± 0.021 | 0.92 ± 0.053 | 0.97 ± 0.022 | 0.927 ± 0.043 | 0.959 ± 0.019 | 0.957 ± 0.026 | 0.929 ± 0.039 | 0.949 ± 0.029 | 0.926 ± 0.018 | 0.942 ± 0.018 | 0.902 ± 0.035 |
| C[C@]1(O)C[C@@H](c2nc(-c3ccc4ccc(-c5ccccc5)nc4c3)c3c(N)nccn32)C1 [Linsitinib] | 0.983 ± 0.02 | 0.958 ± 0.021 | 0.9582 ± 0.0041 | 0.926 ± 0.015 | 0.962 ± 0.015 | 0.943 ± 0.025 | 0.958 ± 0.035 | 0.898 ± 0.024 | 0.887 ± 0.01 | 0.784 ± 0.0085 | 0.63 ± 0.023 |
| COc1cc2c(Oc3ccc4[nH]c(C)cc4c3F)ncnc2cc1OCCCN1CCCC1 [Cediranib] | 0.944 ± 0.036 | 0.934 ± 0.065 | 0.949 ± 0.041 | 0.929 ± 0.037 | 0.967 ± 0.012 | 0.95 ± 0.02 | 0.9503 ± 0.0085 | 0.966 ± 0.029 | 0.774 ± 0.037 | 0.619 ± 0.02 | 0.257 ± 0.023 |
| CC(C)(C)c1cc(NC(=O)Nc2ccc(-c3cn4c(n3)sc3cc(OCCN5CCOCC5)ccc34)cc2)no1 [Quizartinib] | 0.944 ± 0.012 | 0.974 ± 0.019 | 0.94 ± 0.015 | 0.935 ± 0.046 | 0.937 ± 0.023 | 0.931 ± 0.016 | 0.953 ± 0.025 | 0.933 ± 0.031 | 0.823 ± 0.017 | 0.602 ± 0.041 | 0.577 ± 0.025 |
| COc1cc2/c(=N/c3ccc(Br)cc3F)nc[nH]c2cc1OCC1CCN(C)CC1 [Vandetanib] | 0.907 ± 0.02 | 0.925 ± 0.033 | 0.9 ± 0.013 | 0.932 ± 0.041 | 0.909 ± 0.053 | 0.907 ± 0.054 | 0.926 ± 0.022 | 0.909 ± 0.035 | 0.804 ± 0.029 | 0.6028 ± 0.0021 | 0.127 ± 0.0064 |
